Entries after “also recorded” stand apart in the source; their conditions may differ.
Columns and labels:
GST-IRTK = biological target: T1, GST-IRTK (Homo sapiens, UniProt P06213); test: Partial proteolysis; type: binding; details: compound 50 μM or ATP-γ-S 5 μM; limited trypsin (or chymotrypsin) digestion
T1 construct: GST-tagged IRTK (GST-IRTK, a.a. 1011-1382); purchased Invitrogen
Experimental: 200 ng GST-IRTK was subjected to limited trypsin digestion in the presence or absence of 50 μM compound with 50 mM tris-HCL (pH8.2) and 20 mM CacCl2. The sample was separated on a SDS-polyacrylamide gel and stained by silver.
Several small molecules bind to the intracellular kinase domain of IR (IRTK) and provoke its activation. DDN might also interact with the IRTK to activate IR. To test this possibility, an UV-absorption spectra analysis was performed using recombinant IRTK. While the GST-tagged IRTK (GST-IRTK, a.a. 1011-1382) had no absorption from 200 nm to 800 nm, addition of DDN, but not its structural related analogue naptho[2,3-d]thiazole-4,9-dione-2-[(4-chlorophenyl)amino] […] Partial proteolysis analysis was also performed to confirm the DDN/IRTK interaction. Recombinant GST-tagged IRTK was incubated with either DMSO or DDN, followed by limited trypsin digestions. In DMSO treatment, GST-IRTK was digested into several smaller fragments of various molecular weights. […] Whereas a band of ˜37 kDa presented strongly in the ATP-γ-S incubated IRTK, a band of ˜30 kDa was found in the control samples but attenuated in the ATP-γ-S-treated sample.
To evaluate if 4524-E7 directly binds to the IR kinase domain, a partial proteolysis assay was performed with recombinant IRTK domain using trypsin or chymotrypsin, which was used before to characterize the interaction between IR and its small molecular ligand DAQ B1. Recombinant GST-tagged IRTK with either DMSO, 50 μM 4524-E7 or ATP-γ-S, were incubated and followed by limited trypsin or chymotrypsin digestion. Under DMSO treatment, GST-IRTK was quickly digested by both trypsin and chymotrypsin into several small fragments with various molecular weights (FIG. 10B). […] To test whether 4524-E7 selectively elevates IR kinase activities, an in vitro IR, IGFR, and EGFR kinase assays were performed using histone as the substrate.

IR [1] = biological target: T2, IR (Homo sapiens, UniProt P06213); test: Cell-based ELISA of IR tyrosine phosphorylation in CHO-IR cells; parameters: expressed in transfected cells; host or cells: CHO (CHO-IR, gift from Dr. Nicholas Webster, UCSD); details: 5 μM, 30 min, ELISA; compared to the parental compound
T2 sequence (P06213 763-1382 limits assumed): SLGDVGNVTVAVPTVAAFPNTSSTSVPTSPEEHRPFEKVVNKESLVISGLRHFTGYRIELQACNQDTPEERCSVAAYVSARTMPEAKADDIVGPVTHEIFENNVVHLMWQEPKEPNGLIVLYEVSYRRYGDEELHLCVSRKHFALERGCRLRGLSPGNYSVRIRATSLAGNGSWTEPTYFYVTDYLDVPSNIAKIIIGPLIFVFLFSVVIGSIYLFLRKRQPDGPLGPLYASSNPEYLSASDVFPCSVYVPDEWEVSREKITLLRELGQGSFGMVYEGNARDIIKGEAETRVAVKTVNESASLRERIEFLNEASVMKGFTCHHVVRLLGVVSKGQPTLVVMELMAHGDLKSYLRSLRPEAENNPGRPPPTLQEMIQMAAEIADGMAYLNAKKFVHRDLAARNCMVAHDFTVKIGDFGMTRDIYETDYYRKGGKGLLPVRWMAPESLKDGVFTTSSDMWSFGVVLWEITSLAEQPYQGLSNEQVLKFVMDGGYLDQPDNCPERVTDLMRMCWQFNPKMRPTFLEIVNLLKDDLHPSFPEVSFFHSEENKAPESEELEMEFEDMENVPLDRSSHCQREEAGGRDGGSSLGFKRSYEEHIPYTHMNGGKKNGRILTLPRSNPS
T2 sequence (P06213 28-758 limits assumed): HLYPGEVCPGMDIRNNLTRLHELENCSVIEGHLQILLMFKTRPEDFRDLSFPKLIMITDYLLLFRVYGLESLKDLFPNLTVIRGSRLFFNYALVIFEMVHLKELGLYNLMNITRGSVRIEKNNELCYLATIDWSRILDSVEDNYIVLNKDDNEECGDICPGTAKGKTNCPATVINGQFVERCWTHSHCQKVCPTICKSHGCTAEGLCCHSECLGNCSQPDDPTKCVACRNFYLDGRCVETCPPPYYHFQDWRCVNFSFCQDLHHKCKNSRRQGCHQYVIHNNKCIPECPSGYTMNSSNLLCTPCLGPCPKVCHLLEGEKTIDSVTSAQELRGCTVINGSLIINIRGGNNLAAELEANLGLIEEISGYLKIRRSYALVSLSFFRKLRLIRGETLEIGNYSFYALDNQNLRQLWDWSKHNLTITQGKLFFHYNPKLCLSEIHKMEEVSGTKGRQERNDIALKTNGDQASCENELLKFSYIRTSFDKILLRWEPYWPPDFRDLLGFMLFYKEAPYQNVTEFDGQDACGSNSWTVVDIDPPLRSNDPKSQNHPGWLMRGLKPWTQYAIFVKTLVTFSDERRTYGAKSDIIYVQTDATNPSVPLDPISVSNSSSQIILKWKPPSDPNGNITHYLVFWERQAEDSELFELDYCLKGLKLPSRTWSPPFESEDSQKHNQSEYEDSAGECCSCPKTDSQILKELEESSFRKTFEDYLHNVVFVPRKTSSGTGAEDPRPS
Experimental: A cell-based screening assay was developed with Chinese hamster ovary cells stably transfected with IR (CHO-IR) by using an ELISA to determine the IR tyrosine phosphorylation. […] Other 1,4-Napthoquinones that are structurally related to 4524-E7 were evaluated.
CHO-IR cells were seeded in a 96-well plate at 15,000 cells per well in […] of 0.1% FBS medium with 0.1% FBS. […] Cells were lysed, and phosphorylated receptors were captured with pY20 immobilized on ELISA plates. Bound receptors were washed, then detected using an anti-IR beta antibody, followed by an horseradish peroxidase-conjugated secondary antibody and colorimetric detection with 3,3′,5,5′-tetramethylbenzidine.
(§1) A cell-based ELISA assay was developed with an IR stably transfected Chinese Hamster Ovary (CHO-IR) cell line. […] The cell lysates were subjected to the sandwich ELISA using immobilized anti-phosphotyrosine antibody and anti-IR antibody.

IR [2] = biological target: T2, IR; test: Immunoblotting of IR phosphorylation and downstream signaling in CHO-IR cells; type: cell-based; parameters: expressed in transfected cells; host or cells: CHO (CHO-IR, gift from Dr. Nicholas Webster, UCSD); details: 5 μM, 30 min
Experimental: The cell lysates were analyzed by immunoblotting with anti-phospho-IR antibodies, or immunoprecipitated by PY20 and analyzed using anti-IR and anti-IRS-1, respectively. […] The cell lysates were analyzed by immunoblotting with anti-pIGF-1R and anti-pEGFR. […]
as §1

T1 sequence (P06213 1011-1382): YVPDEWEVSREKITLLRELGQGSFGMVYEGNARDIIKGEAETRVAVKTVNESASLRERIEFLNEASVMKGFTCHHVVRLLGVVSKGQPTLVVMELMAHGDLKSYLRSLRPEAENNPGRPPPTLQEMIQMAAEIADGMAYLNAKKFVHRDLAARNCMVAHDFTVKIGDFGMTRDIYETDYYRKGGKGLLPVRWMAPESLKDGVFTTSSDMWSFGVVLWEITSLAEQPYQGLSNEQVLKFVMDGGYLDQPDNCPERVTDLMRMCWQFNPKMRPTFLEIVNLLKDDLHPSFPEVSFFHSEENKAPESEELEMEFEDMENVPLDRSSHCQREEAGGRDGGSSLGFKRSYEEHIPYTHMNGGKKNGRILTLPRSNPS

Row | Structure (SMILES) | protection of IRTK from proteolysis (GST-IRTK) | IR phosphorylation, 4524-E7 derivatives (IR [1]) | IR tyrosine phosphorylation (IR [2])
1 | Nc1ncnc2c1ncn2[C@@H]1O[C@H](COP(=O)(O)OP(=O)(O)OP(O)(O)=S)[C@@H](O)[C@H]1O [ATP-γ-S, reference compound] | altered the proteolysis pattern; also recorded: digestion pattern was altered |  | 
2 | O=C1c2ccccc2C(=O)c2sc(Nc3ccc(Cl)cc3Cl)nc21 [compound 7, 2-((2,4-dichlorophenyl)amino)naphtho[2,3-d]thiazole-4,9-dione] |  | improved activity | triggered IR tyrosine phosphorylation

Source: patent US9040713B2, “Methods of managing blood sugar levels and compositions related thereto” (EMORY UNIVERSITY, priority 2010, dated 2015)
